Data: patent US4870175A, “6-substituted alkoxy-2-oxo-1,2-dihydroquinoxaline derivatives” (Toyo Jozo Kabushiki Kaisha, priority 1987, dated 1989)
Where two headings read alike, the source gives them in different places.

How the values were obtained:
[1] = tested on: cyclic AMP/phosphodiesterase; assay: Inhibitory action of cyclic AMP/phosphodiesterase (crude enzyme fraction from sonicated rabbit platelets); type: biochemical; conditions: 40 min
Protocol: The pharmacological activity of the present compounds [1] is illustrated below. (1) Inhibitory action of cyclic AMP/phosphodiesterase:
A mixture of 2 mM MgCl2 /40 mM Tris-buffer (pH 7.5) 700 μl, enzyme solution (a crude enzyme fraction obtained from sonicated rabbit platelets) 100 μl, and a test sample solution (compound [1] dissolved in 50% aqueous methanol) 100 μl is incubated at 30° C. for 5 mins. 3', 5'-cyclic AMP 100 μl (50 μg) is added thereto and the mixture is further incubated for 40 mins. The reaction is stopped by heating 100° C. for 5 mins. The amount of 5'-AMP in the supernatant obtained by centrifugation at 3000 rpm for 5 mins. is measured using HPLC.
As shown in that table, the compound of the present invention has cyclic AMP/phosphodiesterase inhibitory activity at 1-10 μg/ml.

[2] = tested on: rabbit platelet-rich plasma; assay: Platelet aggregation inhibition (rabbit platelet-rich plasma, aggregometer); type: cell-based; conditions: Oryctolagus cuniculus, compound final concentration 10 μM, read-out: Inhibitory ratio
Protocol: (2) Platelet aggregation inhibition:
A rabbit platelet-rich plasma (5×10^5 /mm^3), to which was added 1/10 volume of a 3.8% sodium citrate solution, 216 μl, is incubated in an aggregometer at 37° C., 1000 rpm, for 3 mins. A test sample solution 12 μl (final concentration 10 μM) is added thereto and the mixture is further incubated for 3 mins., and collagen (aggregation agent) 2.5 μg/ml, ADP 2.5 μM, platelet activating factor (PAF) 0.05 μg/ml or 0.25 mM arachidonic acid (A.A.) 12 μl is added thereto as an aggregating agent, and the platelet aggregation activity is measured.

[3] = aggregating agent PAF 0.05 μg/ml
[4] = aggregating agent arachidonic acid (A.A.) 0.25 mM
[5] = aggregating agent collagen 2.5 μg/ml

`CN(C(=O)CCCOc1ccc2[nH]c(=O)c(-c3ccccc3)nc2c1)C1CCCCC1` [Compound 986] was tested, and the Inhibitory ratio ([1]; 1 μg/ml) was 66.2% and the Inhibitory ratio ([1]; 10 μg/ml) was 80.5%.
`O=C(CCCOc1ccc2[nH]c(=O)cnc2c1)N(CCO)C1CCCCC1` [Compound 917] gave an inhibition at 10 µM ([2]; aggregating agent ADP 2.5 μM) of 36.9%, an inhibition at 10 µM [2, 3] of 36.7% and an inhibition at 10 µM [2, 4] of 32.6%. For the same compound, the inhibition at 10 µM [2, 5] was 57.4%, the Inhibitory ratio ([1]; 1 μg/ml) was 16.6% and the Inhibitory ratio ([1]; 10 μg/ml) was 59.3%. For the same compound, the Inhibitory ratio ([1]; 100 μg/ml) was 87.7%.
Work on `CCCCCCc1nc2cc(OCCCC(=O)N(CCO)C3CCCCC3)ccc2[nH]c1=O` [Compound 978] yielded an Inhibitory ratio ([1]; 1 μg/ml) of 26.2% and an Inhibitory ratio ([1]; 10 μg/ml) of 40.1%.
With `CCCc1nc2cc(OCCCC(=O)N(CCO)C3CCCCC3)ccc2[nH]c1=O` [Compound 975] the Inhibitory ratio ([1]; 1 μg/ml) was 59.5%, the Inhibitory ratio ([1]; 10 μg/ml) was 88.9% and the Inhibitory ratio ([1]; 100 μg/ml) was 93.5%.
`CCCCCCc1nc2cc(OCCCC(=O)OCC)ccc2[nH]c1=O` [Compound 949] showed an Inhibitory ratio ([1]; 1 μg/ml) of 40.9% and an Inhibitory ratio ([1]; 10 μg/ml) of 53.7%.
With `CCCCCCCCCc1nc2cc(OCCCC(=O)O)ccc2[nH]c1=O` [Compound 960] the Inhibitory ratio ([1]; 1 μg/ml) was 34.8%, the Inhibitory ratio ([1]; 10 μg/ml) was 61.7% and the Inhibitory ratio ([1]; 100 μg/ml) was 87.4%.
Work on `O=C(CCCCOc1ccc2[nH]c(=O)cnc2c1)N(CCO)C1CCCCC1` [Compound 923] yielded an inhibition at 10 µM ([2]; aggregating agent ADP 2.5 μM) of 68%, an inhibition at 10 µM [2, 3] of 29% and an inhibition at 10 µM [2, 4] of 56.7%. The inhibition at 10 µM [2, 5] was 75.7%, the Inhibitory ratio ([1]; 1 μg/ml) was 43.7% and the Inhibitory ratio ([1]; 10 μg/ml) was 81.8%. For the same compound, the Inhibitory ratio ([1]; 100 μg/ml) was 92.4%.
In the case of `CN(C(=O)CCCCOc1ccc2[nH]c(=O)cnc2c1)C1CCCCC1` [Compound 920], the inhibition at 10 µM ([2]; aggregating agent ADP 2.5 μM) is reported as 49.3%, the inhibition at 10 µM [2, 3] is reported as 26.9% and the inhibition at 10 µM [2, 4] is reported as 30.2%. The inhibition at 10 µM [2, 5] was 52.5%, the Inhibitory ratio ([1]; 1 μg/ml) was 42.9% and the Inhibitory ratio ([1]; 10 μg/ml) was 81.7%. The Inhibitory ratio ([1]; 100 μg/ml) was 75.1%.
Compound `CCCCc1nc2cc(OCCCC(=O)O)ccc2[nH]c1=O` [Compound 958] has an Inhibitory ratio ([1]; 1 μg/ml) of 69.9%, an Inhibitory ratio ([1]; 10 μg/ml) of 91.4% and an Inhibitory ratio ([1]; 100 μg/ml) of 93.7%.
For `O=C(CCCOc1ccc2[nH]c(=O)c(-c3ccccc3)nc2c1)N(CCO)C1CCCCC1` [Compound 987], the Inhibitory ratio ([1]; 1 μg/ml) was 57.4%, the Inhibitory ratio ([1]; 10 μg/ml) was 83.3% and the Inhibitory ratio ([1]; 100 μg/ml) was 90.2%.
`CCc1nc2cc(OCCCC(=O)N(C)C3CCCCC3)ccc2[nH]c1=O` [Compound 971] was tested, and the Inhibitory ratio ([1]; 1 μg/ml) was 84.4% and the Inhibitory ratio ([1]; 10 μg/ml) was 93.0%.
In the case of `O=C(CCCCOc1ccc2[nH]c(=O)cnc2c1)N(Cc1ccccc1)C1CCCCC1` [Compound 922], the Inhibitory ratio ([1]; 1 μg/ml) is reported as 61.7%, the Inhibitory ratio ([1]; 10 μg/ml) is reported as 88.1% and the Inhibitory ratio ([1]; 100 μg/ml) is reported as 91.1%.
For `CCOC(=O)CCCCOc1ccc2[nH]c(=O)cnc2c1` [Compound 919], the Inhibitory ratio ([1]; 1 μg/ml) was 23.9%, the Inhibitory ratio ([1]; 10 μg/ml) was 65.2% and the Inhibitory ratio ([1]; 100 μg/ml) was 92.4%.
For `O=C(O)CCCOc1ccc2[nH]c(=O)c(-c3ccccc3)nc2c1` [Compound 964], the Inhibitory ratio ([1]; 1 μg/ml) was 43.8%, the Inhibitory ratio ([1]; 10 μg/ml) was 78.8% and the Inhibitory ratio ([1]; 100 μg/ml) was 90.5%.
In the case of `CCc1nc2cc(OCCCC(=O)N3CCN(c4ccccc4OC)CC3)ccc2[nH]c1=O` [Compound 973], the Inhibitory ratio ([1]; 1 μg/ml) is reported as 37.6% and the Inhibitory ratio ([1]; 10 μg/ml) is reported as 42.2%.
For `CCOC(=O)CCCCOc1ccc2c(c1)NCC(=O)N2` [Compound 927], the Inhibitory ratio ([1]; 1 μg/ml) was 10.5%, the Inhibitory ratio ([1]; 10 μg/ml) was 47.7% and the Inhibitory ratio ([1]; 100 μg/ml) was 76.1%.
Compound `COc1ccccc1N1CCN(C(=O)CCCOc2ccc3[nH]c(=O)cnc3c2)CC1` [Compound 918] has an Inhibitory ratio ([1]; 1 μg/ml) of 19.8%, an Inhibitory ratio ([1]; 10 μg/ml) of 61.0% and an Inhibitory ratio ([1]; 100 μg/ml) of 87.9%.
In the case of `CCCCc1nc2cc(OCCCC(=O)OCC)ccc2[nH]c1=O` [Compound 948], the Inhibitory ratio ([1]; 1 μg/ml) is reported as 62.9%, the Inhibitory ratio ([1]; 10 μg/ml) is reported as 87.9% and the Inhibitory ratio ([1]; 100 μg/ml) is reported as 92.7%.
Work on `CCCc1nc2cc(OCCCC(=O)N(C)C3CCCCC3)ccc2[nH]c1=O` [Compound 974] yielded an Inhibitory ratio ([1]; 1 μg/ml) of 73.2% and an Inhibitory ratio ([1]; 10 μg/ml) of 91.7%.
Work on `Cc1nc2cc(OCCCC(=O)O)ccc2[nH]c1=O` [Compound 955, 3-methyl-6-(3-carboxypropoxy)-2-oxo-1,2-dihydroquinoxaline] yielded an Inhibitory ratio ([1]; 1 μg/ml) of 44.2%, an Inhibitory ratio ([1]; 10 μg/ml) of 82.3% and an Inhibitory ratio ([1]; 100 μg/ml) of 93.0%.
In the case of `CCOC(=O)CCCOc1ccc2[nH]c(=O)c(-c3ccccc3)nc2c1` [Compound 954], the Inhibitory ratio ([1]; 1 μg/ml) is reported as 42.4% and the Inhibitory ratio ([1]; 10 μg/ml) is reported as 54.2%.
